Tests used:
iPLA2β [1] = biological target: T1, iPLA2β (Cricetulus griseus, UniProt A0A3L7I2I8); assay: iPLA2β phospholipase A2 activity with radiolabeled POPC substrate; type: biochemical; details: oleoyl-CoA 10 μM, [14C]-POPC substrate, FIG. 11I
T1 construct: (His)6; made in house; host or cells: Sf9 insect cells (baculovirus)
T1 sequence (A0A3L7I2I8 1-752 isoform A0A3L7I2I8-2): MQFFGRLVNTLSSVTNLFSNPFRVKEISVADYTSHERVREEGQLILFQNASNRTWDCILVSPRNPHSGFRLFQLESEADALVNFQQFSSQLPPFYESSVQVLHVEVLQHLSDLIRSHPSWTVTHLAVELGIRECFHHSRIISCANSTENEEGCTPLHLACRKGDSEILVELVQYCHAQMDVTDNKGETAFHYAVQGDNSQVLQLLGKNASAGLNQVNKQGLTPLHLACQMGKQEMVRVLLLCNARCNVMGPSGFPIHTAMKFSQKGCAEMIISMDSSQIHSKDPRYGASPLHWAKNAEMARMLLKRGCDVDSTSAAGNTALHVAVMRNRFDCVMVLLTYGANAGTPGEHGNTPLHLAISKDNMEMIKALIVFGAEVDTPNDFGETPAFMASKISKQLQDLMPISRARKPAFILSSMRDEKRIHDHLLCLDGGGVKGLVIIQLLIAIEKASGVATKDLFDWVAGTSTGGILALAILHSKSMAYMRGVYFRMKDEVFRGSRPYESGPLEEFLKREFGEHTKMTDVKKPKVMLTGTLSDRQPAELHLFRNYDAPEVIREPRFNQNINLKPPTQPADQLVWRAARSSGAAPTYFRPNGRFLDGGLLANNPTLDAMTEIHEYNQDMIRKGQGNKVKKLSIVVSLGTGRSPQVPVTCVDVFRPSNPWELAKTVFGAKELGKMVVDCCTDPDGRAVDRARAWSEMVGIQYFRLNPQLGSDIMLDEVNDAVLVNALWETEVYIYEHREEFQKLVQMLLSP
Procedure: FIG. 9—Calcium-independent iPLA2β was pre-incubated in the presence of Ca^2+ (1 mM) or Ca^2+-CaM (3 μg) on ice before addition to 95 μM POPC containing either 5 mol % [1-^14C]-POPC or [1-^14C]-palmitoyl-CoA in 100 mM Tris-HCl, pH 7.2. After incubation at 37° C. for 3 min, reactions were terminated by vortexing in the presence of butanol and released radiolabeled fatty acids were resolved by TLC and quantitated by liquid scintillation spectrometry as described in Experimental Procedures.
FIGS. 11A-11D—Purified iPLA2β+/−Ca^2+/CaM was incubated with POPC/BODIPY-PC (95:5 mol %) host vesicles for 2 min at 37° C. with the indicated concentrations of guest oleoyl-CoA. Relative fluorescence was recorded utilizing 495 nm excitation and 515 nm emission wavelengths as described in Experimental Procedures. […] Radiolabeled fatty acid was extracted into butanol, resolved by TLC, and quantified by scintillation spectrometry as described in Experimental Procedures.
Phospholipase A2 and Acyl-CoA Hydrolase Enzymatic Assays—Purified recombinant iPLA2β(His)6 (peptide disclosed as SEQ ID NO: 4) (0.1-1 μg) was incubated with radiolabeled phospholipid or acyl-CoA in 25 mM Tris-HCl, pH 7.2 containing 1 mM EGTA (200 μl final volume) for 1-2 mm at 37° C. […] Incorporation of acyl-CoA into the POPC/DOPS vesicles employed was determined as described previously (64). […]

iPLA2β [2] = biological target: T1, iPLA2β; assay: ESI-MS analysis of iPLA2β reaction products from POPC/BODIPY-PC vesicles; type: biochemical; details: 5 mol % oleoyl-CoA, FIG. 11H
Procedure: FIGS. 11A-11D—Purified iPLA2β+/−Ca^2+/CaM was incubated with POPC/BODIPY-PC (95:5 mol %) host vesicles for 2 min at 37° C. with the indicated concentrations of guest oleoyl-CoA. Relative fluorescence was recorded utilizing 495 nm excitation and 515 nm emission wavelengths as described in Experimental Procedures. FIGS. 11E-11H—ESI-MS analysis of phosphatidylcholine molecular species from the reactions described in panels A and D. Spectra were acquired in the positive ion mode with the indicated internal standards as described in Experimental Procedures. FIG. 11I—Purified iPLA2β in the presence or absence of Ca^2+/CaM was incubated with 1-palmitoyl-2-[1-^14C]-oleoyl-sn-glycero-3-phosphocholine (100 μM) host vesicles with or without guest oleoyl-CoA (10 μM) for 3 min at 37° C. Radiolabeled fatty acid was extracted into butanol, resolved by TLC, and quantified by scintillation spectrometry as described in Experimental Procedures.
To confirm that iPLA2β was in fact hydrolyzing BODIPY-PC and that the increase in fluorescence observed was not due to either protein-fluorophore or acylCoA-fluorophore interactions, the reaction substrates and products were extracted into chloroform/methanol in the presence of internal standards and subsequently quantified and analyzed by ESI-MS (83). […]

inhibition at 10 µM (iPLA2β [1]; no CaM, read-out: inhibition of iPLA2β activity by oleoyl-CoA alone): 20%
activity of CaM-inhibited iPLA2β, % of the activity observed with oleoyl-CoA alone (iPLA2β [1]): approximately 75%
effect on inhibition of iPLA2β by Ca2+/CaM (iPLA2β [2]): completely reversed the inhibition
SMILES: CCCCCCCC/C=C\CCCCCCCC(=O)SCCNC(=O)CCNC(=O)[C@H](O)C(C)(C)COP(=O)(O)OP(=O)(O)OC[C@H]1O[C@@H](n2cnc3c(N)ncnc32)[C@H](O)[C@@H]1OP(=O)(O)O [oleoyl-CoA]

Source: US8148097B2, “Screening method for identification of compounds with calcium-independent phospholipase A2β (iPLA2β) modulating activity” (Washington University, priority 2005, dated 2012)
